Laboratory results: US20180250306A1, “ALDEHYDE CONJUGATES AND USES THEREOF” (ALDEYRA THERAPEUTICS, INC., priority 2015, published 2018)

What was measured:
[1] = Preliminary single dose i.p. pharmacokinetics of NS2 and NS2-SSA adduct formation in wild type mice; format: in vivo, wild type C57B16 mice
Procedure: Mice were 41-46 days old on the day of treatment, and groups (n=3) were balanced for age, gender and starting weight (18±3 g). […] The results of this study informed the design of a subsequent 8-hour single dose study to measure additional biochemical outcomes (GHB and related metabolites) in both SSADH deficient mice and wild type littermates.
A preliminary assessment of single dose, i.p. pharmacokinetics (PK) was conducted in wild type C57B16 mice. Mice were 41-46 days old at the time of dosing. […] Three mice per timepoint were used for pharmacokinetic analysis. The study design is outlined in Table 6 below.
Homogenates (100 μL) were protein-precipitated with cold acetonitrile containing 0.1% formic acid (900 μL). Serum samples (25 μL) were protein-precipitated with 425 μL of cold acetonitrile containing 0.1% formic acid. Samples were centrifuged at 2,500×g then supernatant was transferred to a clean tube and dried under a constant heated flow of nitrogen (50° C.). Samples were reconstituted in 100 μL of mobile phase A (water with 0.1% formic acid, LC-MS/MS grade reagents).
These studies were performed only in wild-type C57B16 mice (n=21). […] The mice ranged in age from 41-46 days of age.

IL-1β = experiment: Western Blot of IL-1β levels in cardiac fibroblasts; format: cell-based, neonatal rats; conditions: p<0.01
Procedure: Thirty hearts from neonatal rats were minced and digested (Neonatal Cardiomyocyte Isolation System, LK003303, Worthington). After tissue digestion and cell dissociation, cell suspensions were plated into 35 mm dishes or onto coverslips in wells of 24-well plates. Serum-free DMEM was added to the cell suspensions and the cells allowed to adhere for 2 hrs. After two hours, the cell suspension was removed and the adherent cells were fed with DMEM containing 10% fetal bovine serum (FBS). Cells were maintained in DMEM+10% FBS for 24 hours before treatments. Treatment duration was 24 hours.
Cell samples were divided in to 2 groups, stimulated with H2O2 or not stimulated with H2O2. […] The cells that were treated with H2O2 contained a final concentration of 0.001% in the wells. Drug was dissolved in 9.5% Captisol®, to a stock concentration of 5 mg/ml. […] Cells were treated for 24 hours then either fixed for immunostaining or collected as lysates for Western Blot analysis.
Whole cell lysates were used for Western blotting; nuclear and cytosolic fractions were not prepared. DMEM from cells plated in 35 mm plates was removed, the cells rinsed quickly in PBS, then incubated in 500 ul cold RIPA buffer for 20-30 minutes at 4° C. under gentle rocking. Following RIPA incubation, cells were scraped from the dish using cell scrapers and frozen at −80° C. overnight to increase cell lysing. […]

circulating cytokines [2] = experiment: LPS model of inflammation in the mouse, ELISA of circulating cytokines; format: in vivo, mice
Procedure: Male C57BI/6 mice are dosed with disclosed compounds 30 minutes before they are exposed to LPS (20 mg/kg). Two hours after the LPS exposure, blood is collected from the mice and an ELISA is conducted to determine the amount of circulating cytokines. Treatment with disclosed compounds leads to reduction in proinflammatory cytokines, such as IL-5 and IL-1β, IL-17, and TNF. Also, treatment with disclosed compounds results in elevated anti-inflammatory cytokines, such as IL-10.

[3] = Aldehyde adduct formation over time (product HPLC peak)
Procedure: It is not possible to conclude if this is the result of poor dissociation (from cyclodextrin) or poor interaction with the aldehyde. Best fit lines over this period give excellent fit to data. […] It can be used to relatively rank each of the samples examined, including NS2. The data were first evaluated over a 7 h time window.

circulating cytokines [4] = conditions: LPS model, mouse; cited from earlier work
[5] = hamster cheek pouch radiation; cited from earlier work
[6] = wild type mice, single dose 10 mg/kg i.p.
[7] = rank from most effective (1) to least

For `CC(C)(O)c1nc2ccc(Cl)cc2cc1N` [NS2, 2-(3-amino-6-chloroquinolin-2-yl)propan-2-ol], the concentration at 24 h ([1]; both sexes, C57B16 (wild type), mouse, serum, ip, wild type mice, single dose 10 mg/kg i.p., by 24 hours) was under 50 nM, the tolerability ([1]; mouse, in vivo, ip, 10 mg/kg) was “tolerated” and the “brain penetration of NS2” value [1, 6] was “good brain penetration”. For the same compound, the “order of NS2 pharmacokinetics” value [1, 6] was “first-order pharmacokinetics”, the “peak serum concentration of NS2” value [1, 6] was 43.1 ± 15.4 µM and the “time to peak serum concentration of NS2” value [1, 6] was 0.5 h. The “peak concentration of NS2 in brain” value ([1]; wild type mice, single dose 10 mg/kg i.p., brain) was 52.4±22.9, the “peak concentration of NS2 in liver” value ([1]; wild type mice, single dose 10 mg/kg i.p., liver) was 116±3.1 and the “IL-1β levels (Western Blot)” value (IL-1β; H2O2-stimulated cells) was “significant decreases”. For the same compound, the “IL-1β levels (Western Blot)” value (IL-1β; unstimulated cells) was “significant decreases”, the pro-inflammatory cytokines (circulating cytokines [2]; such as IL-5, IL-1β, IL-17, TNF) was “downregulate” and the anti-inflammatory cytokines (circulating cytokines [2]; such as IL-10) was “upregulate”. The “Gradient of product HPLC peak increase (rate of adduct formation)” value ([3]; 7 h time window) was “(Gradient 2.22,”, the “Gradient of product HPLC peak increase (rate of adduct formation)” value ([3]; 23 h time window) was “(Gradient 1.33,” and the “Formation of Product, ranking, 7 Hours” value [3, 7] was 2. The “Formation of Product, ranking, 23 Hours” value [3, 7] was 2, the “activation of IL-1β” value (circulating cytokines [4]) was “significantly decreased” and the “activation of IL-17” value (circulating cytokines [4]) was “significantly decreased”. The “activation of TGF-β” value (circulating cytokines [4]) was “significantly decreased”, the “levels of the anti-inflammatory cytokine Interleukin 10 (IL-10)” value (circulating cytokines [4]) was “significantly increasing” and the “overall fibrosis at the site of injury over time” value [5] was “decrease”. For the same compound, the “rate of recovery from injury” value [5] was “significant increase”.
